Measured values as given in ChEMBL document CHEMBL1143799, “Synthesis and primary cytotoxicity evaluation of new imidazo[2,1-b]thiazole derivatives” (2007).

Experiments:
Format in all cases: functional
[1] = test system: HCC 2998; test: Growth inhibition of human HCC2998 cells after 48 hrs by SRB protein assay; details: HCC 2998, 48 h
[2] = test system: SK-MEL-5; test: Growth inhibition of human SK-MEL-5 cells after 48 hrs by SRB protein assay; details: SK-MEL-5, 48 h
[3] = test system: MDA-MB-435; test: Growth inhibition of human MDA-MB-435 cells after 48 hrs by SRB protein assay; details: MDA-MB-435, 48 h
[4] = test system: COLO 205; test: Growth inhibition of human COLO205 cells after 48 hrs by SRB protein assay; details: COLO 205, 48 h
[5] = test system: OVCAR-5; test: Growth inhibition of human OVCAR5 cells after 48 hrs by SRB protein assay; details: OVCAR-5, 48 h
[6] = test system: HCT-116; test: Growth inhibition of human HCT116 cells after 48 hrs by SRB protein assay; details: HCT-116, 48 h
[7] = test system: M14; test: Growth inhibition of human M14 cells after 48 hrs by SRB protein assay; details: M14, 48 h
[8] = test system: MCF7; test: Growth inhibition of human MCF7 cells after 48 hrs by SRB protein assay; details: MCF7, 48 h
[9] = test system: RXF 393; test: Growth inhibition of human RXF393 cells after 48 hrs by SRB protein assay; details: RXF 393, 48 h, read-out: Log TGI (converted)
[10] = test system: RPMI-8226; test: Growth inhibition of human RPMI8226 cells after 48 hrs by SRB protein assay; details: RPMI-8226, 48 h
[11] = test system: UACC-62; test: Growth inhibition of human UACC62 cells after 48 hrs by SRB protein assay; details: UACC-62, 48 h
[12] = test system: SK-OV-3; test: Growth inhibition of human SK-OV-3 cells after 48 hrs by SRB protein assay; details: SK-OV-3, 48 h
[13] = test system: IGROV-1; test: Growth inhibition of human IGROV1 cells after 48 hrs by SRB protein assay; details: IGROV-1, 48 h
[14] = test system: KM12; test: Growth inhibition of human KM12 cells after 48 hrs by SRB protein assay; details: KM12, 48 h
[15] = test system: SF-539; test: Growth inhibition of human SF539 cells after 48 hrs by SRB protein assay; details: SF-539, 48 h
[16] = test system: SW-620; test: Growth inhibition of human SW620 cells after 48 hrs by SRB protein assay; details: SW-620, 48 h
[17] = test system: NCI-H522; test: Growth inhibition of human NCI-H522 cells after 48 hrs by SRB protein assay; details: NCI-H522, 48 h
[18] = test system: SN12C; test: Growth inhibition of human SN12C cells after 48 hrs by SRB protein assay
[19] = test system: BT-549; test: Growth inhibition of human BT549 cells after 48 hrs by SRB protein assay; details: BT-549, 48 h
[20] = test system: Hs-578T; test: Growth inhibition of human HS578T cells after 48 hrs by SRB protein assay
[21] = test system: PC-3; test: Growth inhibition of human PC3 cells after 48 hrs by SRB protein assay; details: PC-3, 48 h
[22] = test system: OVCAR-3; test: Growth inhibition of human OVCAR-3 cells after 48 hrs by SRB protein assay; details: OVCAR-3, 48 h
[23] = test system: U-251; test: Growth inhibition human U251 of cells after 48 hrs by SRB protein assay; details: U-251, 48 h
[24] = test system: UACC-257; test: Growth inhibition of human UACC257 cells after 48 hrs by SRB protein assay; details: UACC-257, 48 h
[25] = test system: OVCAR-8; test: Growth inhibition of human OVCAR8 cells after 48 hrs by SRB protein assay; details: OVCAR-8, 48 h
[26] = test system: MDA-MB-231; test: Growth inhibition of MDA-MB-231 cells after 48 hrs by SRB protein assay; details: Homo sapiens, MDA-MB-231, 48 h
[27] = test system: A549; test: Growth inhibition of human A549 cells after 48 hrs by SRB protein assay; details: A549, 48 h
[28] = test system: UO-31; test: Growth inhibition of human UO31 cells after 48 hrs by SRB protein assay; details: UO-31, 48 h
[29] = test system: DU-145; test: Growth inhibition of human DU145 cells after 48 hrs by SRB protein assay; details: DU-145, 48 h
[30] = test system: SK-MEL-2; test: Growth inhibition of human SK-MEL-2 cells after 48 hrs by SRB protein assay; details: SK-MEL-2, 48 h
[31] = test system: MOLT-4; test: Growth inhibition of human MOLT4 cells after 48 hrs by SRB protein assay; details: MOLT-4, 48 h
[32] = test system: CAKI-1; test: Growth inhibition of human CAKI1 cells after 48 hrs by SRB protein assay; details: CAKI-1, 48 h
[33] = test system: NCI-H460; test: Growth inhibition of human NCI-H460 cells after 48 hrs by SRB protein assay; details: NCI-H460, 48 h
[34] = test system: HT-29; test: Growth inhibition of human HT29 cells after 48 hrs by SRB protein assay; details: HT-29, 48 h
[35] = test system: ACHN; test: Growth inhibition of human ACHN cells after 48 hrs by SRB protein assay
[36] = test system: T47D; test: Growth inhibition of human T47D cells after 48 hrs by SRB protein assay
[37] = test system: NCI-H23; test: Growth inhibition of human NCI-H23 cells after 48 hrs by SRB protein assay; details: NCI-H23, 48 h
[38] = test system: EKVX; test: Growth inhibition of human EKVX cells after 48 hrs by SRB protein assay
[39] = test system: SNB-75; test: Growth inhibition of human SNB75 cells after 48 hrs by SRB protein assay; details: SNB-75, 48 h

GI50 [1]: 14.5 µM
GI50 [2]: 7.08 µM
GI50 [3]: 6.31 µM
GI50 [4]: 43.7 µM
GI50 [5]: 27.5 µM
GI50 [6]: 10.5 µM
GI50 [8]: 63.1 µM
GI50 [10]: 4.27 µM
GI50 [12]: 52.5 µM
GI50 [16]: 31.6 µM
GI50 [17]: 10.7 µM
GI50 [19]: 13.5 µM
GI50 [21]: < 0.01 µM
GI50 [22]: 24 µM
GI50 [23]: 21.4 µM
GI50 [25]: 7.08 µM
GI50 [26]: 10.5 µM
GI50 [27]: 10.7 µM
GI50 [29]: 22.4 µM
GI50 [30]: 26.3 µM
GI50 [31]: 4.17 µM
GI50 [33]: 57.5 µM
GI50 [34]: 50.1 µM
GI50 [35]: 14.8 µM
GI50 [36]: 31.6 µM
GI50 [37]: 7.59 µM
Compound: O=C(Cc1csc2nc(-c3ccc(Br)cc3)cn12)N/N=C/c1ccc(O)cc1
TGI ([1]; read-out: Log TGI (converted)): 29.5 µM
TGI ([2]; read-out: Log TGI (converted)): 22.4 µM
TGI ([3]; read-out: Log TGI (converted)): 24.5 µM
TGI ([4]; read-out: Log TGI (converted)): > 100 µM
TGI ([5]; read-out: Log TGI (converted)): > 100 µM
TGI ([6]; read-out: Log TGI (converted)): 24 µM
GI50 [7]: 10.2 µM
TGI ([7]; read-out: Log TGI (converted)): 23.4 µM
TGI ([8]; read-out: Log TGI (converted)): > 100 µM
TGI [9]: 40.7 µM
TGI ([10]; read-out: Log TGI (converted)): 39.8 µM
GI50 [11]: 9.12 µM
TGI ([11]; read-out: Log TGI (converted)): 23.4 µM
TGI ([12]; read-out: Log TGI (converted)): > 100 µM
GI50 [13]: 10.7 µM
TGI ([13]; read-out: Log TGI (converted)): 39.8 µM
GI50 [14]: 17.8 µM
TGI ([14]; read-out: Log TGI (converted)): 75.9 µM
GI50 [15]: 18.2 µM
TGI ([15]; read-out: Log TGI (converted)): 46.8 µM
TGI ([16]; read-out: Log TGI (converted)): > 100 µM
TGI ([17]; read-out: Log TGI (converted)): 34.7 µM
GI50 [18]: 15.5 µM
TGI ([18]; read-out: Log TGI (converted)): 43.7 µM
TGI ([19]; read-out: Log TGI (converted)): 56.2 µM
GI50 [20]: 23.4 µM
TGI ([20]; read-out: Log TGI (converted)): 93.3 µM
TGI ([21]; read-out: Log TGI (converted)): 23.4 µM
TGI ([22]; read-out: Log TGI (converted)): 49 µM
TGI ([23]; read-out: Log TGI (converted)): > 100 µM
GI50 [24]: 1.51 µM
TGI ([24]; read-out: Log TGI (converted)): 7.76 µM
TGI ([25]; read-out: Log TGI (converted)): 25.7 µM
TGI ([26]; read-out: Log TGI (converted)): 43.7 µM
TGI ([27]; read-out: Log TGI (converted)): 33.9 µM
GI50 [28]: 26.3 µM
TGI ([28]; read-out: Log TGI (converted)): > 100 µM
TGI ([29]; read-out: Log TGI (converted)): 87.1 µM
TGI ([30]; read-out: Log TGI (converted)): 95.5 µM
TGI ([31]; read-out: Log TGI (converted)): 10 µM
GI50 [32]: 14.8 µM
TGI ([32]; read-out: Log TGI (converted)): 49 µM
TGI ([33]; read-out: Log TGI (converted)): > 100 µM
TGI ([34]; read-out: Log TGI (converted)): > 100 µM
TGI ([35]; read-out: Log TGI (converted)): 51.3 µM
TGI ([36]; read-out: Log TGI (converted)): > 100 µM
TGI ([37]; read-out: Log TGI (converted)): 32.4 µM
GI50 [38]: 11.5 µM
TGI ([38]; read-out: Log TGI (converted)): 66.1 µM
GI50 [39]: > 100 µM
TGI ([39]; read-out: Log TGI (converted)): > 100 µM
